What was measured:
[1] = Fibril formation by transmission electron microscopy; format: physicochemical; conditions: negative stain TEM
Description: Fibrillated PSMα1 and PSMα4 samples were collected following the ThT fibrillation kinetics assay (as described above) by combining the contents of 2–3 wells from the plate. Solutions were centrifuged at 21,000 × g and the supernatant was discarded. The pellet containing the fibrils was re-suspended in 20 μl of ultra-pure water.
Fibril formation of the short segments, IIKIIK, IIKVIK, LFKFFK and KLFKFFK, was examined for peptides dissolved directly from the powder form. IIKVIK from PSMα1 and IIKIIK from PSMα4 were re-suspended to 20 mM with 75% DMSO in ultra-pure water and incubated for about 1 week at room temperature (Fig. 2b). LFKFFK and KLFKFFK from PSMα3 were re-suspended in ultra-pure water to 10 mM. LFKFFK was incubated for about a month and KLFKFFK was incubated for 14 days at room temperature (Fig. 3b).
Five-microliter samples were applied directly onto copper TEM grids with support films of Formvar/Carbon (Ted Pella), which were charged by glow-discharge (PELCO easiGlow, Ted Pella) immediately before use. Grids were allowed to adhere for 2 min and negatively stained with 5 μl of 2% uranyl acetate solution. Micrographs were recorded using FEI Tecnai G2 T20 S-Twin transmission electron microscope operated at an accelerating voltage of 200 KeV (located at the Department of Materials Science & Engineering at the Technion, Israel), FEI Tecnai G2 T12 TEM operated at an accelerating voltage of 120 kV (located at the Russell Berrie Electron Microscopy Center of Soft Matter at the Technion, Israel). Images were recorded digitally by a Gatan US 1000 CCD camera using the DigitalMicrograph® software.

[2] = Fibril thermal-stability assay (TEM); format: physicochemical; conditions: 10 mM (LFKFFK in ultra-pure water, IIKIIK in DMSO), 3 days at room temperature, 50 °C for 5 min, then cooled at room temperature 20 min
Description: For the fibril thermal-stability assay (Fig. 5), peptides were dissolved to 10 mM (LFKFFK in ultra-pure water and IIKIIK in DMSO) and incubated at room temperature for 3 days. Samples were applied directly onto copper TEM grids and stained as described above. The samples were then incubated at 50 °C in a pre-heated thermoblock for 5 min and immediately applied onto TEM grids. The samples were then allowed to cool down at room temperature for 20 min and applied onto TEM grids. Micrographs were recorded as described above.

Staphylococcus hominis = assay: Disc diffusion assay testing antibacterial activity; format: cell-based; conditions: ATTC 27844, peptide 50 mg ml−1 in ultra-pure water (LFKFFK, KLFKFFK) or DMSO (IIKVIK, IIKIIK) loaded on discs, BHI-agar, incubated over-night, coincides with activity in solution (Supplementary Fig. 4)
Description: (§1) Micrococcus luteus (an environmental isolate) was a kind gift from Prof. Charles Greenblatt from the Hebrew university in Jerusalem, Israel. An inoculum was grown in Luria-Bertani (LB) medium at 30 °C with 220 rpm shaking overnight. Staphylococcus hominis (ATTC 27844) and Staphylococcus aureus (ATCC 25923) were purchased from ATCC, USA. An inoculum was grown in brain-heart infusion (BHI) media at 37 °C with 220 rpm shaking overnight.
(§2) Bacterial cultures were grown overnight as described above and diluted 1000-fold to a fresh media until growth reached to optical density of ~0.4 measured at 600 nm (OD600). The refreshed cultures were plated on LB-agar or BHI-agar according to the bacterial strain. The antibacterial activity of PSMα segments was examined: Lyophilized peptides were dissolved in ultra-pure water (LFKFFK and KLFKFFK) or DMSO (IIKVIK and IIKIIK) to a final concentration of 50 mg ml^−1. The concentrated peptide solutions were loaded on blank antimicrobial susceptibility discs (Oxoid, UK). Discs loaded with ultra-pure water or DMSO were used as controls. The discs were gently placed on bacteria plated agar and incubated over-night at the appropriate temperatures.

Micrococcus luteus = assay: as above; format: cell-based; conditions: peptide 50 mg ml−1 in ultra-pure water (LFKFFK, KLFKFFK) or DMSO (IIKVIK, IIKIIK) loaded on discs, LB-agar, incubated over-night, coincides with activity in solution (Supplementary Fig. 4)
Description: as §1, §2

Staphylococcus aureus = assay: as above; format: cell-based; conditions: ATCC 25923, peptide 50 mg ml−1 in ultra-pure water loaded on discs, BHI-agar, incubated over-night
Description: as §1, §2

[3] = Thioflavin T fluorescence fibrillation kinetics assay; conditions: 50 µM peptide, 200 µM ThT; Tris buffer pH 7.5 (PSMα1 and mutant) or ultra-pure water (PSMα4 and mutant); 37 °C; about 100 h; mean of triplicates
Description: Final concentrations for each reaction were 50 µM peptide (PSMα1, PSMα4, or their mutants) and 200 µM ThT. Blank solutions were also prepared for each reaction, containing everything but the peptides. The reaction mixture was carried out in a black 96-well flat-bottom plate (Greiner bio-one) covered with a thermal seal film (EXCEL scientific) and incubated in a plate reader (CLARIOstar BMG LABTECH) at a temperature of 37 °C with 500 rpm shaking for 85 s before each reading cycle, and up to 1000 cycles of 6 min each. Measurements were made in triplicates. Fluorescence was measured by excitation at 438 ± 20 nm and emission at 490 ± 20 nm over a period of about 100 h. All triplicate values were averaged, appropriate blanks were subtracted, and the resulting values were plotted against time. Calculated standard errors of the mean are presented as error bars. The entire experiment was repeated at least three times on different days.

[4] = 20 mM in 75% DMSO in ultra-pure water, about 1 week at room temperature
[5] = 10 mM in ultra-pure water, room temperature, LFKFFK about a month, KLFKFFK 14 days

Substance | fibril formation, electron micrographs [1, 4] | thermal stability of fibrils [2] | antibacterial activity against S. hominis (Staphylococcus hominis) | antibacterial activity against M. luteus (Micrococcus luteus) | fibril formation, electron micrographs [1, 5] | toxicity to S. aureus (Staphylococcus aureus) | Thioflavin T binding [3]
IIKIIK [spine segment of PSMα4; acetylated N-terminus and amidated C-terminus, or unmodified termini for crystallography] | fibrils | remain stable | do not elicit antibacterial activity | do not elicit antibacterial activity | – | – | –
IIKVIK [spine segment of PSMα1; acetylated N-terminus and amidated C-terminus, or unmodified termini for crystallography] | fibrils | – | do not elicit antibacterial activity | do not elicit antibacterial activity | – | – | –
KLFKFFK [one-residue longer PSMα3 segment] | – | – | dose-dependent antibacterial activity | dose-dependent antibacterial activity | straight and twisted crystalline fibrils | not toxic | –
LFKFFK [truncated segment of PSMα3; acetylated N-terminus and amidated C-terminus, or unmodified termini for crystallography] | – | dissolve upon heating to 50 °C, and reform upon cooling | dose-dependent antibacterial activity | dose-dependent antibacterial activity | fibrils and nano-crystals | not toxic | –
MAIVGTIPKPIKAIIDIFAK | – | – | – | – | – | – | no ThT binding
MGIIAGPIPVIKSLIEQFTGK | – | – | – | – | – | – | no ThT binding

Source: PMC6115460, “Extreme amyloid polymorphism in Staphylococcus aureus virulent PSMα peptides” (Nature Communications, 2018)
